Test results: ChEMBL document CHEMBL5131511, “Design of artificial α-helical peptides targeting both gp41 deep pocket and subpocket as potent HIV-1 fusion inhibitors” (Eur J Med Chem, 2022)
Where a SMILES comes first, the peptide text is derived from it. [ ]: non-standard residue; d: D form. The star is where a group is joined. O(cholesteryl) = CC(C)CCC[C@@H](C)[C@H]1CC[C@H]2[C@@H]3CC=C4C[C@@H](O*)CC[C@]4(C)[C@H]3CC[C@]12C; PEG12 = NCCOCCOCCOCCOCCOCCOCCOCCOCCOCCOCCOCCOCCC(=O)O; PEG8 = NCCOCCOCCOCCOCCOCCOCCOCCOCCC(=O)O; PEG4 = NCCOCCOCCOCCOCCC(=O)O

Tests used:
[1] = test system: Human immunodeficiency virus 1; test: Antiviral activity against HIV-1 IIIB assessed as inhibition of viral replication measured after 4 days by ELISA; format: functional, organism-based; settings: Human immunodeficiency virus 1, IIIB, 96 h
[2] = test system: Human immunodeficiency virus 1; test: Antiviral activity against HIV-1 IIIB (B, X4) assessed as inhibition of viral replication measured after 4 days by ELISA; format: functional, organism-based; settings: Human immunodeficiency virus 1, IIIB (B, X4), 96 h
[3] = test system: Human immunodeficiency virus 1; test: Antiviral activity against T20-sensitive HIV-1 D36G assessed as inhibition of viral replication measured after 4 days by ELISA; format: functional, organism-based
[4] = test system: Human immunodeficiency virus 1; test: Antiviral activity against T20-resistant HIV-1 V38E/N42S assessed as inhibition of viral replication measured after 4 days by ELISA; format: functional, organism-based
[5] = test system: Human immunodeficiency virus 1; test: Antiviral activity against T20-resistant HIV-1 V38A/N42T assessed as inhibition of viral replication measured after 4 days by ELISA; format: functional, organism-based
[6] = Selectivity ratio of EC50 for antiviral activity against T20-resistant HIV-1 V38E/N42S to EC50 for antiviral activity against T20-sensitive HIV-1 D36G; format: functional
[7] = Selectivity ratio of EC50 for antiviral activity against T20-resistant HIV-1 V38A/N42T to EC50 for antiviral activity against T20-sensitive HIV-1 D36G; format: functional

## CC[C@H](C)[C@H](NC(=O)[C@H](CCC(N)=O)NC(=O)[C@H](CCC(=O)O)NC(=O)[C@H](CCC(=O)O)NC(=O)[C@@H](NC(=O)[C@H](CCCCN)NC(=O)[C@H](CCCCN)NC(=O)[C@@H](NC(=O)[C@H](CC(C)C)NC(=O)[C@H](CCC(=O)O)NC(=O)[C@H](CCC(=O)O)NC(=O)[C@H](CO)NC(=O)[C@H](CCCCN)NC(=O)[C@H](CCCCN)NC(=O)[C@@H](NC(=O)[C@H](CC(C)C)NC(=O)[C@H](CCC(=O)O)NC(=O)[C@H](CCC(=O)O)NC(=O)[C@@H](NC(=O)[C@H](CCCCN)NC(=O)[C@H](CCCCN)NC(=O)[C@H](CO)NC(=O)[C@H](Cc1c[nH]c2ccccc12)NC(=O)[C@H](CCC(=O)O)NC(=O)[C@H](CCC(=O)O)NC(=O)[C@H](Cc1c[nH]c2ccccc12)NC(=O)[C@H](CCCCN)NC(=O)[C@H](CCCCN)NC(=O)[C@@H](NC(=O)[C@H](CO)NC(=O)[C@H](CCC(=O)O)NC(=O)[C@H](CCC(=O)O)NC(=O)[C@H](CCC(N)=O)NC(C)=O)[C@@H](C)CC)[C@@H](C)CC)[C@@H](C)CC)[C@@H](C)CC)[C@@H](C)CC)C(=O)N[C@@H](CCCCN)C(=O)N[C@@H](CCCCN)C(=O)NCCOCCOCCOCCOCCOCCOCCOCCOCCC(=O)N[C@@H](CS)C(=O)O[C@H]1CC[C@@]2(C)C(=CC[C@H]3[C@@H]4CC[C@H]([C@H](C)CCCC(C)C)[C@@]4(C)CC[C@@H]32)C1 (Ac-QEESIKKWEEWSKKIEELIKKSEELIKKIEEQIKK[PEG8]C-{O(cholesteryl)})
[1]
  EC50: 21.2 nM

## CC[C@H](C)[C@H](NC(=O)[C@H](CCC(N)=O)NC(=O)[C@H](CCC(=O)O)NC(=O)[C@H](CCC(=O)O)NC(=O)[C@@H](NC(=O)[C@H](CCCCN)NC(=O)[C@H](CCCCN)NC(=O)[C@@H](NC(=O)[C@H](CC(C)C)NC(=O)[C@H](CCC(=O)O)NC(=O)[C@H](CCC(=O)O)NC(=O)[C@H](CO)NC(=O)[C@H](CCCCN)NC(=O)[C@H](CCCCN)NC(=O)[C@@H](NC(=O)[C@H](CC(C)C)NC(=O)[C@H](CCC(=O)O)NC(=O)[C@H](CCC(=O)O)NC(=O)[C@@H](NC(=O)[C@H](CCCCN)NC(=O)[C@H](CCCCN)NC(=O)[C@H](CO)NC(=O)[C@H](Cc1c[nH]c2ccccc12)NC(=O)[C@H](CCC(=O)O)NC(=O)[C@H](CCC(=O)O)NC(=O)[C@H](Cc1c[nH]c2ccccc12)NC(=O)[C@H](CCCCN)NC(=O)[C@H](CCCCN)NC(=O)[C@@H](NC(=O)[C@H](CO)NC(=O)[C@H](CCC(=O)O)NC(=O)[C@H](CCC(=O)O)NC(=O)[C@H](CCC(N)=O)NC(C)=O)[C@@H](C)CC)[C@@H](C)CC)[C@@H](C)CC)[C@@H](C)CC)[C@@H](C)CC)C(=O)N[C@@H](CCCCN)C(=O)N[C@@H](CCCCN)C(=O)NCCOCCOCCOCCOCCOCCOCCOCCOCCOCCOCCOCCOCCC(=O)N[C@@H](CS)C(=O)O[C@H]1CC[C@@]2(C)C(=CC[C@H]3[C@@H]4CC[C@H]([C@H](C)CCCC(C)C)[C@@]4(C)CC[C@@H]32)C1 (Ac-QEESIKKWEEWSKKIEELIKKSEELIKKIEEQIKK[PEG12]C-{O(cholesteryl)})
[1]
  EC50: 5.22 nM

## Ac-QEESIKKWEEWDKKIEELIKKSEELIKKIEEQIKK-NH2
[2]
  EC50: 40.8 nM

## Ac-QEENNKKWEEWDKKIEELIKKSEELIKKIEEQIKK-NH2
[2]
  EC50: 68.7 nM

## enfuvirtide
[1]
  EC50: 8.26 nM
[3]
  EC50: 41.1 nM
[4]
  EC50: > 1000 nM
[5]
  EC50: 696 nM
[6]
  Ratio EC50: >24
[7]
  Ratio EC50: 17

## CC[C@H](C)[C@H](NC(=O)[C@H](CCC(N)=O)NC(=O)[C@H](CCC(=O)O)NC(=O)[C@H](CCC(=O)O)NC(=O)[C@@H](NC(=O)[C@H](CCCCN)NC(=O)[C@H](CCCCN)NC(=O)[C@@H](NC(=O)[C@H](CC(C)C)NC(=O)[C@H](CCC(=O)O)NC(=O)[C@H](CCC(=O)O)NC(=O)[C@H](CO)NC(=O)[C@H](CCCCN)NC(=O)[C@H](CCCCN)NC(=O)[C@@H](NC(=O)[C@H](CC(C)C)NC(=O)[C@H](CCC(=O)O)NC(=O)[C@H](CCC(=O)O)NC(=O)[C@@H](NC(=O)[C@H](CCCCN)NC(=O)[C@H](CCCCN)NC(=O)[C@H](CO)NC(=O)[C@H](Cc1c[nH]c2ccccc12)NC(=O)[C@H](CCC(=O)O)NC(=O)[C@H](CCC(=O)O)NC(=O)[C@H](Cc1c[nH]c2ccccc12)NC(=O)[C@H](CCCCN)NC(=O)[C@H](CCCCN)NC(=O)[C@@H](NC(=O)[C@H](CO)NC(=O)[C@H](CCC(=O)O)NC(=O)[C@H](CCC(=O)O)NC(=O)[C@H](CCC(N)=O)NC(C)=O)[C@@H](C)CC)[C@@H](C)CC)[C@@H](C)CC)[C@@H](C)CC)[C@@H](C)CC)C(=O)N[C@@H](CCCCN)C(=O)N[C@@H](CCCCN)C(=O)NCCOCCOCCOCCOCCC(=O)N[C@@H](CS)C(=O)O[C@H]1CC[C@@]2(C)C(=CC[C@H]3[C@@H]4CC[C@H]([C@H](C)CCCC(C)C)[C@@]4(C)CC[C@@H]32)C1 (Ac-QEESIKKWEEWSKKIEELIKKSEELIKKIEEQIKK[PEG4]C-{O(cholesteryl)})
[1]
  EC50: 44.4 nM
